Patent publication US4036979A, “Compositions containing 4,5,6,7-tetrahydrobenz[b]thien-4-yl-ureas or derivatives and methods of enhancing growth rate” (American Cyanamid Company, priority 1976, dated 1977)

Assay: Mouse Growth Regulant Tests (12-day weight gain over controls, compound in diet)
Assay type: in vivo, CFI female mice
Settings: Mus musculus, feed or water, 288 h, Table VI; 50 ppm in diet
Procedure: CFI female mice from Carworth Farms are received when they are six weeks old. They are housed ten to a cage in air-conditioned rooms (72° F. to 76° F.) with automatically controlled lights, 14 hours on and 10 hours off. The basal diet used in these studies is Purina Laboratory Chow (see description below), which is supplied ad libitum. Water is also allowed ad libitum.
Thirteen days after arrival, the mice are weighed in groups of ten and assigned at random to the different treatments. Twelve days later the mice are weighed again and the experiment terminated. At least three cages (30 mice) of untreated controls are included in each test. Test data are provided in Tables VI, VII, VIII, and IX below wherein data are reported as percent weight gain over controls. Unless otherwise indicated in these tables, all compounds tested were dl-racemic mixtures. The following is a description of the diet to which the growth promoting compounds were added.

| SMILES | change in vivo at 50 ppm |
| --- | --- |
| CCNC(=O)NC1CCCc2sccc21 (stereo not drawn) [Table VI: O,H,H,H,H,C2H5, 1-ethyl-3-(4,5,6,7-tetrahydrobenzo[b]thien-4-yl)urea] | 40.3% |
| CNC(=O)NC1CCCc2sccc21 (stereo not drawn) [Table VI: O,H,H,H,H,CH3, 1-methyl-3-(4,5,6,7-tetrahydrobenzo[b]thien-4-yl)urea] | 61.8% |

Same assay, conditions: Mus musculus, feed or water, 288 h, Table VI; 200 ppm in diet

| SMILES | change in vivo at 200 ppm |
| --- | --- |
| CCNC(=O)NC1CCCc2sccc21 (stereo not drawn) [Table VI: O,H,H,H,H,C2H5, 1-ethyl-3-(4,5,6,7-tetrahydrobenzo[b]thien-4-yl)urea] | 87.6% |
| CCCCNC(=O)NC1CCCc2sccc21 (stereo not drawn) [Table VI: O,H,H,H,H,n-butyl] | 25% |

Same assay, conditions: Mus musculus, feed or water, 288 h, Table VI; 400 ppm in diet

| SMILES | change in vivo at 400 ppm |
| --- | --- |
| CC(C)N(O)C(=O)NC1CCCc2sccc21 (stereo not drawn) [Table VI: O,H,H,H,CH(CH3)2,OH] | 32% |
| CCNC(=O)NC1CCCc2sccc21 (stereo not drawn) [Table VI: O,H,H,H,H,C2H5, 1-ethyl-3-(4,5,6,7-tetrahydrobenzo[b]thien-4-yl)urea] | 87.6% |
| O=C(NCc1ccccc1)NC1CCCc2sccc21 (stereo not drawn) [Table VI: O,H,H,H,H,CH2C6H5, 1-benzyl-3-(4,5,6,7-tetrahydrobenzo[b]thien-4-yl)urea] | 32.4% |
| C#CCNC(=O)NC1CCCc2sccc21 (stereo not drawn) [Table VI: O,H,H,H,H,CH2CCH] | 82% |
| O=C(NCC(F)(F)F)NC1CCCc2sccc21 (stereo not drawn) [Table VI: O,H,H,H,H,CH2CF3] | 19% |
| O=C(NCCc1ccccc1)NC1CCCc2sccc21 (stereo not drawn) [Table VI: O,H,H,H,H,CH2CH2C6H5, 1-phenethyl-3-(4,5,6,7-tetrahydrobenzo[b]thien-4-yl)urea] | 72.3% |
| O=C(NCCO)NC1CCCc2sccc21 (stereo not drawn) [Table VI: O,H,H,H,H,CH2CH2OH] | 3% |
| COC(CNC(=O)NC1CCCc2sccc21)OC (stereo not drawn) [Table VI: O,H,H,H,H,CH2CH(OCH3)2] | 22% |
| C=CCNC(=O)NC1CCCc2sccc21 (stereo not drawn) [Table VI: O,H,H,H,H,CH2CHCH2] | 48.4% |
| N#CCNC(=O)NC1CCCc2sccc21 (stereo not drawn) [Table VI: O,H,H,H,H,CH2CN] | 12% |
| COCNC(=O)NC1CCCc2sccc21 (stereo not drawn) [Table VI: O,H,H,H,H,CH2OCH3, 1-(methoxymethyl)-3-(4,5,6,7-tetrahydrobenzo[b]thien-4-yl)urea] | 102% |
| CNC(=O)NC1CCCc2sccc21 (stereo not drawn) [Table VI: O,H,H,H,H,CH3, 1-methyl-3-(4,5,6,7-tetrahydrobenzo[b]thien-4-yl)urea] | 134% |
| CC(C)NC(=O)NC1CCCc2sccc21 (stereo not drawn) [Table VI: O,H,H,H,H,CH(CH3)2, 1-isopropyl-3-(4,5,6,7-tetrahydrobenzo[b]thien-4-yl)urea] | 88% |
| N#CNC(=O)NC1CCCc2sccc21 (stereo not drawn) [Table VI: O,H,H,H,H,CN] | 1% |
| CN(C)NC(=O)NC1CCCc2sccc21 (stereo not drawn) [Table VI: O,H,H,H,H,N(CH3)2] | 3% |
| COC(=O)NNC(=O)NC1CCCc2sccc21 (stereo not drawn) [Table VI: O,H,H,H,H,NHCO2CH3] | 18% |
| CCONC(=O)NC1CCCc2sccc21 (stereo not drawn) [Table VI: O,H,H,H,H,OC2H5, 1-ethoxy-3-(4,5,6,7-tetrahydrobenzo[b]-thien-4-yl)urea] | 61% |

| SMILES | change in vivo at 400 ppm |
| --- | --- |
| O=C(NOCc1ccccc1)NC1CCCc2sccc21 (stereo not drawn) [Table VI: O,H,H,H,H,OCH2C6H5, 1-benzyloxy-3-(4,5,6,7-tetrahydrobenzo[b]thien-4-yl)urea] | 7.8% |
| C=CCONC(=O)NC1CCCc2sccc21 (stereo not drawn) [Table VI: O,H,H,H,H,OCH2CHCH2] | 5% |
| O=C(O)CONC(=O)NC1CCCc2sccc21 (stereo not drawn) [Table VI: O,H,H,H,H,OCH2CO2H] | 63.3% |
| CONC(=O)NC1CCCc2sccc21 (stereo not drawn) [Table VI: O,H,H,H,H,OCH3, 1-methoxy-3-(4,5,6,7-tetrahydrobenzo[b]thien-4-yl)urea] | 68.6% |
| O=C(NO)NC1CCCc2sccc21 (stereo not drawn) [Table VI: O,H,H,H,H,OH, 1-hydroxy-3-(4,5,6,7-tetrahydrobenzo[b]thien-4-yl)urea] | 103% |
| CCCCCCONC(=O)NC1CCCc2sccc21 (stereo not drawn) [Table VI: O,H,H,H,H,On-C6H13] | 29% |
| CCCCCCNC(=O)NC1CCCc2sccc21 (stereo not drawn) [Table VI: O,H,H,H,H,n-hexyl, 1-(n-hexyl)-3-(4,5,6,7-tetrahydrobenzo[b]thien-4-yl)urea] | 14.5% |
| CCCCN(CCCC)C(=O)NC1CCCc2sccc21 (stereo not drawn) [Table VI: O,H,H,H,n-butyl,n-butyl, 1,1-dibutyl-3-(4,5,6,7-tetrahydrobenzo[b]thien-4-yl)urea] | 6% |
| NC(=O)NC1CCCc2sc([N+](=O)[O-])cc21 (stereo not drawn) [Table VI: O,NO2,H,H,H,H, 2-nitro-4,5,6,7-tetrahydrobenzo[b]thien-4-ylurea] | 17% |
| CNC(=S)NC1CCCc2sc(C)cc21 (stereo not drawn) [Table VI: S,CH3,H,H,CH3,H] | 88.5% |
| CON(C)C(=S)NC1CCCc2sccc21 (stereo not drawn) [Table VI: S,H,H,H,CH3,OCH3] | 66% |
| CCNC(=S)NC1CCCc2sccc21 (stereo not drawn) [Table VI: S,H,H,H,H,C2H5, 1-ethyl-3-(4,5,6,7-tetrahydrobenzo[b]thien-4-yl)thiourea] | 54.6% |
| C=CCNC(=S)NC1CCCc2sccc21 (stereo not drawn) [Table VI: S,H,H,H,H,CH2CHCH] | 60% |
| CCOC(=O)NC(=S)NC1CCCc2sccc21 (stereo not drawn) [Table VI: S,H,H,H,H,CO2C2H5] | 22.3% |
| NC(=S)NC1CCCc2sccc21 (stereo not drawn) [Table VI: S,H,H,H,H,H, 4,5,6,7-tetrahydrobenzo[b]thien-4-yl thiourea] | 11% |
| CCCCCCCCNC(=S)NC1CCCc2sccc21 (stereo not drawn) [Table VI: S,H,H,H,H,n-C8H17] | 16% |
| CCCCNC(=S)NC1CCCc2sccc21 (stereo not drawn) [Table VI: S,H,H,H,H,n-butyl] | 75% |

Same assay, conditions: Mus musculus, feed or water, 288 h, Table VII; 200 ppm in diet

| SMILES | change in vivo at 200 ppm |
| --- | --- |
| CN(C)C(=O)NC1CCC(=O)c2sccc21 (stereo not drawn) [Table VII: O,CH3,CH3, 1,1-dimethyl-3-(4,5,6,7-tetrahydro-7-oxobenzo[b]thien-4-yl)urea] | 58.6% |
| CON(C)C(=O)NC1CCC(=O)c2sccc21 (stereo not drawn) [Table VII: O,CH3,OCH3, 1-methoxy-1-methyl-3-(4,5,6,7-tetrahydro-7-oxobenzo[b]thien-4-yl)urea] | 62.6% |
| CN(O)C(=O)NC1CCC(=O)c2sccc21 (stereo not drawn) [Table VII: O,CH3,OH] | 31.3% |
| C#CCNC(=O)NC1CCC(=O)c2sccc21 (stereo not drawn) [Table VII: O,H,CH2CCH, 1-(2-propynyl)-3-(4,5,6,7-tetrahydro-7-oxobenzo[b]thien-4-yl)urea] | 40.6% |
| CONC(=O)NC1CCC(=O)c2sccc21 (stereo not drawn) [Table VII: O,H,OCH3] | 71% |
| CC(C)NC(=O)NC1CCC(=O)c2sccc21 (stereo not drawn) [Table VII: O,H,iso-C3H7] | 84% |

Same assay, conditions: Mus musculus, feed or water, 288 h, Table VII; 400 ppm in diet

| SMILES | change in vivo at 400 ppm |
| --- | --- |
| CCNC(=O)NC1CCC(=O)c2sccc21 (stereo not drawn) [Table VII: O,H,C2H5, 1-ethyl-3-(4,5,6,7-tetrahydro-7-oxobenzo[b]thien-4-yl)urea] | 79.3% |
| C=CCNC(=O)NC1CCC(=O)c2sccc21 (stereo not drawn) [Table VII: O,H,CH2CHCH2] | 58.7% |
| COCNC(=O)NC1CCC(=O)c2sccc21 (stereo not drawn) [Table VII: O,H,CH2OCH3, 1-(methoxymethyl)-3-(4,5,6,7-tetrahydro-7-oxobenzo[b]thien-4-yl)urea] | 143% |
| CNC(=O)NC1CCC(=O)c2sccc21 (stereo not drawn) [Table VII: O,H,CH3, 1-methyl-3-(4,5,6,7-tetrahydro-7-oxobenzo[b]thien-4-yl)urea] | 64.8% |
| CCCCCCCCNC(=O)NC1CCC(=O)c2sccc21 (stereo not drawn) [Table VII: O,H,n-C8H17] | 83.4% |
| CCCCCCCCCCNC(=O)NC1CCC(=O)c2sccc21 (stereo not drawn) [Table VII: O,H,n-C10H21] | 15.4% |
| CCCCCCCCCCCCNC(=O)NC1CCC(=O)c2sccc21 (stereo not drawn) [Table VII: O,H,n-C12H25, 1-n-dodecyl-3-(4,5,6,7-tetrahydro-7-oxobenzo[b]thien-4-yl)urea] | 4.1% |
| CCCCCCCCCCCCCCNC(=O)NC1CCC(=O)c2sccc21 (stereo not drawn) [Table VII: O,H,n-C14H29] | 9.7% |
| CNC(=S)NC1CCC(=O)c2sccc21 (stereo not drawn) [Table VII: S,H,CH3] | 62.5% |

Same assay, conditions: Mus musculus, feed or water, 288 h, Table VIII; 50 ppm in diet

| SMILES | change in vivo at 50 ppm |
| --- | --- |
| C#CCNC(=O)NC1CCC(O)c2sccc21 (stereo not drawn) [Table VIII: O,H,CH2CCH, 1-(2-propynyl)-3-(7-hydroxy-4,5,6,7-tetrahydrobenzo[b]thien-4-yl)urea] | 49.2% |

Same assay, conditions: Mus musculus, feed or water, 288 h, Table VIII; 200 ppm in diet

| SMILES | change in vivo at 200 ppm |
| --- | --- |
| CON(C)C(=O)NC1CCC(O)c2sccc21 (stereo not drawn) [Table VIII: O,CH3,OCH3, 1-methyl-1-methoxy-3-(7-hydroxy-4,5,6,7-tetrahydrobenzo[b]-thien-4-yl)urea] | 60.5% |
| CCNC(=O)NC1CCC(O)c2sccc21 (stereo not drawn) [Table VIII: O,H,C2H5, 1-ethyl-3-(7-hydroxy-4,5,6,7-tetrahydrobenzo[b]thien-4-yl)urea] | 73.4% |

Same assay, conditions: Mus musculus, feed or water, 288 h, Table VIII; 400 ppm in diet

| SMILES | change in vivo at 400 ppm |
| --- | --- |
| CN(C)C(=O)NC1CCC(O)c2sccc21 (stereo not drawn) [Table VIII: O,CH3,CH3, 1,1-dimethyl-3-(7-hydroxy-4,5,6,7-tetrahydrobenzo[b]thien-4-yl)urea] | 81.5% |
| C=CCNC(=O)NC1CCC(O)c2sccc21 (stereo not drawn) [Table VIII: O,H,CH2CHCH2, 1-allyl-3-(7-hydroxy-4,5,6,7-tetrahydrobenzo[b]thien-4-yl)-urea] | 29.1% |
| COCNC(=O)NC1CCC(O)c2sccc21 (stereo not drawn) [Table VIII: O,H,CH2OCH3, 1-(methoxymethyl)-3-(4,5,6,7-tetrahydro-7-hydroxybenzo[b]thien-4-yl)urea] | 124% |
| CNC(=O)NC1CCC(O)c2sccc21 (stereo not drawn) [Table VIII: O,H,CH3, 1-methyl-3-(7-hyroxy-4,5,6,7-tetrahydrobenzo[b]thien-4-yl)urea] | 60.2% |
